In patent publication US20260008784A1 (VASTHERA CO., LTD., priority 2022, published 2026):

Assays:
[1] = test system: SuHx rat model of pulmonary arterial hypertension; assay: Sugen/hypoxia (SuHx) rat model of pulmonary arterial hypertension; assay type: in vivo; settings: P.O., once daily, 0.1 mg/kg, 5 weeks; for RV hypertrophy (Fulton's index) / Right ventricular systolic pressure (RVSP): compared to vehicle control group, FIG. 7
Description: The rat study protocol was approved by the Institutional Animal Care and Use Committee of the Ewha Womans University, Republic of Korea, and conforms to the ARRIVE guidelines. Six-week-old rats were acclimatized for one week in the laboratory. Then, Sugen 5416 (Sigma Aldrich) was subcutaneously injected at a dose of 20 mg/kg. The administered subjects were maintained in a normobaric hypoxic (10% O2) chamber (A chamber, Biosphenix) for 3 weeks. Rats were transferred to normoxia and orally administered with either control vehicle or test compounds for additional 5 weeks (P.O., once daily, 0.1 mg per kg weight).
Right ventricular systolic pressure (RVSP) was measured by […] using a curved catheter equipped with PowerLab2/26 device (AD Instruments, UK). Rats were anesthetized with 2% isoflurane inhalation. A catheter was inserted through the right jugular vein, the pressure was measured for 10 seconds with stabilized pattern. After […], rats were perfused with saline, and the heart was carefully removed. The removed heart was dissected into the right ventricle (RV), the rest of the septum (S; septum), and the left ventricle (LV). Each piece of heart was weighed using a microbalance. The RV/(LV+S) value was calculated and represented as a right ventricular hypertrophy index (Fulton's index).
Rats were anesthetized with 2% isoflurane inhalation and subjected to transcardiac perfusion-fixation with heparinized saline solution containing […]. Then, left lung lobes were incised and fixed in 10% NBF for 3 days. The fixed tissues were paraffin-embedded and sectioned using a rotary microtome (Leica HistoCore MULTICUT). Two serial tissue sections (4 μm thick) were placed a slide glass and stained with hematoxylin and eosin (HE). For analysis, ˜100 pulmonary arteries (diameter 20-100 μm) per tissue section were chosen for measurement. The luminal, internal elastic laminal, and external elastic laminal areas were quantified using NIH ImageJ v1.62. The intimal and medial areas were determined by subtraction of the luminal area from the internal elastic area and by subtracting the internal elastic area from the external elastic area. The values were averaged and used for calculating pulmonary arterial vessel thickness.
Paraffin sections were blocked with 5% normal donkey serum (Vector Laboratories) in PBST (PBS solution of 0.3% Triton X-100) for 1 h at room temperature. Thereafter, lung tissue sections were incubated with […] for Alexa Fluor 568-conjugated smooth muscle actin (α-SMA; 1:300 dilution) and Alexa Fluor 488-conjugated von Willebrand Factor (vWF; 1:200 dilution) at 4° C. for 12 h. Subsequently, nuclei were counterstained with DAPI. Fluorescence images were recorded in random regions of at least 10 pulmonary artery vessels (diameter 20-100 um) per tissue section at a screen magnification of 60× using an LSM 880 confocal microscope equipped with argon and helium-neon lasers.
The therapeutic effect of new compounds on pulmonary arterial hypertension was evaluated in a preclinical SuHx rat model. For establishing PAH model, rats were administered with Sugen (VEGFR2 inhibitor) and placed in a normobaric hypoxic condition (10% O2) for 3 weeks. Rats were moved to normoxic condition and orally administered with control vehicle or compound 1 or 8 (P.O., once daily, 0.1 mg/kg) for 5 weeks. Thereafter, right ventricular systolic pressure (RVSP) and right ventricular hypertrophy (Fulton's index) were measured at the end of treatment.

[2] = in vitro; settings: human
Description: (§2) For cytotoxicity analysis, human aortic endothelial cells (HAEC) and smooth muscle cells (HASMC) were seeded in a 96-well culture plate at density of 4000 cells/well in a final volume of 100 μL. Cells were cultured for 24 h and serum-starved for an additional 18 h. Test compounds were serially diluted with EBM-2 culture medium, added to the plate at 100 μL/well, and further incubated for 24 h. The number of viable cells was measured using the WST-1 cell viability assay kit (Roche Diagnostics, USA). Cell number was expressed as absorbance values at 450 nm after subtracting the turbidity value at 600 nm. The absorbance values from three replicate wells were averaged.
(§3) After treatment with ascending concentrations of each compound, the concentration of test compound corresponding to 50% cell viability (CC50) was measured.

[3] = in vitro; settings: human; remark: listed apart in the source
Description: as §2, §3

[4] = test system: PDGF-induced tyrosine phosphorylation and PLC-γ1 phosphorylation in PASMC; assay: Immunoblot of PDGF-mediated signaling in PrxII knock-down PASMC; assay type: cell-based, human; settings: PASMCs, PDGF stimulation, FIG. 3
Description: (§1) Cells were quickly washed in ice-cold phosphate-buffered saline (PBS) and lysed in extraction buffer containing 20 mM Hepes (pH 7.0), 1% Triton X-100, 150 mM NaCl, 10% glycerol, 1 mM EDTA, 2 mM EGTA, and 1 mM DTT, 5 mM Na3VO4, 5 mM NaF, 1 mM AEBSF, aprotinin (5 μg/mL), and leupeptin (5 μg/mL). After cen-trifugation at 12,000×g, the clarified cell extracts were used for immunoblotting. For re-blotting, the immunoblots were retrieved in a solution of 67 mM Tris (pH 6.7), 2% SDS, and 100 mM 2-mercaptoethanol at 60° C. for 30 min to remove antibodies and rinsed three times with a Tris-buffered saline (TBS) solution containing 1% Triton X-100. The retrieved membranes were subjected to new immunoblotting.
In human aortic smooth muscle cell (HASMC) and human pulmonary artery smooth muscle cell (PASMC) in which PrxII was knocked out by transfecting the PrxII siRNA, the ability of test compounds to replace the cellular function of PrxII was evaluated. That is, the efficacy of the new compounds was verified in terms of signaling pathways induced by PDGF that regulates the growth and migration of vascular smooth muscle cells in the aorta and pulmonary artery. Activation of PDGF-induced signaling pathway was analyzed by an immunoblot method using an antibody that specifically recognizes phosphorylation of Tyr 857, which is a major phosphorylation site on PDGF receptor (PDGFRβ).

[5] = test system: VEGF-induced tyrosine phosphorylation and ERK2 phosphorylation in PAEC; assay: Immunoblot of VEGF-mediated signaling in PrxII knock-down PAEC; assay type: cell-based, human; settings: PAECs, VEGF stimulation, FIG. 6
Description: as §1
In human aortic endothelial cell (HAEC) and human pulmonary artery endothelial cell (PAEC) in which PrxII was knocked out by transfecting the PrxII siRNA, the ability of test compounds to replace the cellular function of PrxII was evaluated. That is, the efficacy of the new compounds was verified in terms of signaling pathways induced by VEGF that regulates the growth and migration of vascular endothelial cells in the aorta and pulmonary artery. Activation of VEGF-induced signaling pathway was analyzed by an immunoblot method using an antibody that specifically recognizes phosphorylation of Tyr 1175, which is a major phosphorylation site on VEGF receptor-2 (VEGFR2).

| Structure (SMILES) | Pulmonary arterial vessel occlusion (histology) ([1]; FIG. 8) | RV hypertrophy (Fulton's index) [1] | Right ventricular systolic pressure (RVSP) [1] | Endothelial layer (vWF-labeled ECs) in pulmonary arterial vessels ([1]; immunostaining, FIG. 9) | Medial thickness (SMA-labeled SMCs) in pulmonary arterial vessels ([1]; immunostaining, FIG. 9) | CC50 [2] [µM] | CC50 [3] [µM] | Effect on total tyrosine phosphorylation and phosphorylation of signaling proteins downstream of PDGFRβ [4] | Effect on total tyrosine phosphorylation and phosphorylation of signaling proteins downstream of VEGFR2 [5] |
| --- | --- | --- | --- | --- | --- | --- | --- | --- | --- |
| CN1C(=O)C2(C)SSCC1C(=O)N2C (centres unmarked) [Compound 1, 1,6,8-trimethyl-2,3-dithia-6,8-diazabicyclo[3.2.2]nonane-7,9-dione] | widens the pulmonary arterial vessels | significantly reduces | significantly reduces | induces the recovery of endothelial layer | reduction of medial thickness | > 500 | > 500 | – | – |
| O=C1C2CSSC3(COCCN13)C(=O)N2Cc1ccccc1 (centres unmarked) [Compound 8, 12-benzyltetrahydro-5H,10H-4,10a-(epiminomethano)[1,4]oxazino[3,4-c][1,2,4]dithia zepine-5,11-dione] | – | significantly reduces | significantly reduces | – | – | – | – | significantly inhibits the protein phosphorylation | significantly inhibits the protein phosphorylation |
